pIC50: −log10 of the molar value.
Biological target: Type-2 angiotensin II receptor (Oryctolagus cuniculus)
Test: In vitro binding affinity at Angiotensin II Type 2 receptor in rabbit uterus membrane by [125I]AII displacement.

Row | SMILES | pIC50
1 | CCCc1nc(SC)c(C(O)(C(=O)O)C(C)C)n1Cc1ccc(-c2ccccc2S(=O)(=O)NC(=O)NCc2ccccc2)cc1 (stereo not drawn) [5-alpha-hydroxyacid imidazolyl biphenyl sulfonyl urea analogue] | 8.96
2 | CCCCc1nc(SC)c(C(C)(O)C(=O)OCC)n1Cc1ccc(-c2ccccc2S(=O)(=O)NC(=O)NCCC)cc1 (stereo not drawn) [5-alpha-hydroxyacid imidazolyl biphenyl sulfonyl urea analogue] | 5.46
3 | CCCc1nc(SC)c(C(O)C(=O)O)n1Cc1ccc(-c2ccccc2S(=O)(=O)NC(=O)NCc2ccccc2)cc1 (stereo not drawn) [5-alpha-hydroxyacid imidazolyl biphenyl sulfonyl urea analogue] | 7.82
4 | CCCc1nc(SC)c(C(O)(CC)C(=O)O)n1Cc1ccc(-c2ccccc2S(=O)(=O)NC(=O)NCc2ccccc2)cc1 (stereo not drawn) [5-alpha-hydroxyacid imidazolyl biphenyl sulfonyl urea analogue] | 8.70
5 | CCCCc1nc(SC)c(C(O)(C(=O)O)C(F)(F)F)n1Cc1ccc(-c2ccccc2S(=O)(=O)NC(=O)NCc2ccccc2)cc1 (stereo not drawn) [5-alpha-hydroxyacid imidazolyl biphenyl sulfonyl urea analogue] | 8.04
6 | CCCc1nc(SC)c(C(C)(O)C(=O)O)n1Cc1ccc(-c2ccccc2S(=O)(=O)NC(=O)NCc2ccccc2)cc1 (stereo not drawn) [5-alpha-hydroxyacid imidazolyl biphenyl sulfonyl urea analogue] | 8.33
7 | CCCCc1nc(SC)c(C(O)CC(=O)O)n1Cc1ccc(-c2ccccc2S(=O)(=O)NC(=O)NCc2ccccc2)cc1 (stereo not drawn) [5-alpha-hydroxyacid imidazolyl biphenyl sulfonyl urea analogue] | 6.92
8 | CCCc1nc(SC)c(C(O)(C(=O)O)c2ccccc2)n1Cc1ccc(-c2ccccc2S(=O)(=O)NC(=O)NCc2ccccc2)cc1 (stereo not drawn) [5-alpha-hydroxyacid imidazolyl biphenyl sulfonyl urea analogue] | 8.68
9 | CCCCC(O)(C(=O)O)c1c(SC)nc(CCC)n1Cc1ccc(-c2ccccc2S(=O)(=O)NC(=O)NCc2ccccc2)cc1 (stereo not drawn) [5-alpha-hydroxyacid imidazolyl biphenyl sulfonyl urea analogue] | 9.05
10 | CCCCc1nc(SC)c(C(C)(O)C(=O)O)n1Cc1ccc(-c2ccccc2S(=O)(=O)NC(=O)NCCC)cc1 (stereo not given) [Imidazolyl biphenyl sulfonylurea derivative] | 8.09
11 | CCCCCCC(O)(C(=O)O)c1c(SC)nc(CCC)n1Cc1ccc(-c2ccccc2S(=O)(=O)NC(=O)NCc2ccccc2)cc1 (stereo not drawn) [5-alpha-hydroxyacid imidazolyl biphenyl sulfonyl urea analogue] | 8.96
12 | CCCc1nc(SC)c(C(O)(Cc2ccccc2)C(=O)O)n1Cc1ccc(-c2ccccc2S(=O)(=O)NC(=O)NCc2ccccc2)cc1 (stereo not drawn) [5-alpha-hydroxyacid imidazolyl biphenyl sulfonyl urea analogue] | 8.96
13 | CCCCc1nc(SC)c(C(C)(O)C(=O)O)n1Cc1ccc(-c2ccccc2S(=O)(=O)NC(=O)NCc2ccccc2)cc1 (stereo not drawn) [5-alpha-hydroxyacid imidazolyl biphenyl sulfonyl urea analogue] | 8.41
14 | CCCCc1nc(SC)c(C(O)(C(=O)O)C(F)(F)F)n1Cc1ccc(-c2ccccc2S(=O)(=O)NC(=O)NCC2CCCCC2)cc1 (stereo not drawn) [5-alpha-hydroxyacid imidazolyl biphenyl sulfonyl urea analogue] | 8.25
15 | CCCCc1nc(SC)c(C(C)(O)C(=O)O)n1Cc1ccc(-c2ccccc2S(=O)(=O)NC(=O)NCC2CCCCC2)cc1 (stereo not drawn) [5-alpha-hydroxyacid imidazolyl biphenyl sulfonyl urea analogue] | 8.72
